Source: US8313777B2, “Water-dispersible oral, parenteral, and topical formulations for poorly water soluble drugs using smart polymeric nanoparticles” (The Johns Hopkins University, priority 2006, dated 2012)

Key:
[1] = test system: BxPC3 human pancreatic cancer cell line; test: In vitro cell viability (MTT) assay, BxPC3; type: cell-based; conditions: increasing dosages, 96 hours
From the text: In the illustrated example, NIPAAM/VP/AA polymeric nanoparticles in molar ratio of 60:20:20 were used for paclitaxel encapsulation. […] Also included as control in each condition were void polymeric nanoparticle equal to the amount required for encapsulating said dose of nanopaclitaxel (white bar) and solvent (dimethylsulfoxide [DMSO], blue bar) equal to the amount required for dissolving said dose of free paclitaxel. […] Thus, nano-encapsulation of the drug is not associated with loss of drug activity. […] All assays were performed in triplicate and error bars represent standard deviations.
FIG. 9 illustrates in vitro cell viability (MTT assay) performed using the water-soluble drug gemcitabine conjugated to the acrylic acid (AA) surface reactive functional group of polymeric nanoparticle. Unlike the poorly water drugs that are encapsulated within the nanoparticle, water soluble drugs like gemcitabine can be conjugated to the nanoparticle surface, rendering this compound amenable to oral delivery. Human pancreatic cancer cell line BxPC3 is incubated with increasing dosages of either free gemcitabine (black bar), nano-gemcitabine (white bar), void polymer (grey bar), or PBS solvent (patterned bar). UT=untreated. […] All assays were performed in triplicate and means and standard deviations are plotted. […]

[2] = Solubilization in water, visual (turbidity, floating particles vs transparent solution); type: physicochemical; conditions: equivalent amounts of free and nanoparticle-encapsulated drug
[3] = Blood levels of rapamycin 2 hours after oral delivery (HPLC); type: in vivo, C57/B6 wild type mice; conditions: 15 mg/kg rapamycin or equivalent, 2 hours post delivery
From the text: FIG. 10 illustrates blood levels of rapamycin following oral delivery of polymeric nanoparticles. Rapamycin was encapsulated in nanoparticles comprised of increasing order of acrylic acid (AA) percentage in the co-polymeric composition. The nanoparticles were either administered as is, or after surface PEGylation. Compared are: Control A (rapamycin suspended in water); rapamycin nanoparticle comprised of NIPAAM:VP:AA in a ratio of 60:30:10 (designated as NVA631); rapamycin nanoparticle comprised of NIPAAM:VP:AA in a ratio of 60:20:20 (designated as NVA622); rapamycin nanoparticle comprised of NIPAAM:VP:AA in a ratio of 60:10:30 (designated as NVA613); and rapamycin nanoparticle comprised of NIPAAM:MMA:AA in a ratio of 60:20:20 (designated as NMA622). The corresponding PEGylated nanoparticles (PEG-NVA-631, PEG-NVA-622, PEG-NVA-613, and PEG-NMA-622) encapsulating rapamycin are designated as shaded bars. […] Blood levels are measured by HPLC from samples obtained at 2 hours post oral delivery.
Rapamycin is a poorly water soluble drug that has low oral bioavailability. […] At 2 hours post oral administration, the mice were bled and rapamycin concentrations in the blood were determined by high performance liquid chromatography (HPLC). […]

| solubility in water (appearance of solution) [2] | blood level of rapamycin [3] | Structure (SMILES) | activity in cell viability assay, free vs nano-gemcitabine [1] |
| --- | --- | --- | --- |
| – | – | Nc1ccn([C@@H]2O[C@H](CO)[C@@H](O)C2(F)F)c(=O)n1 [free gemcitabine, gemcitabine] | comparable activity |
| essentially insoluble in water | – | CC(=O)O[C@H]1C(=O)[C@@]2(C)[C@H]([C@H](OC(=O)c3ccccc3)[C@]3(O)C[C@H](OC(=O)[C@H](O)[C@@H](NC(=O)c4ccccc4)c4ccccc4)C(C)=C1C3(C)C)[C@]1(OC(C)=O)CO[C@@H]1C[C@@H]2O [free paclitaxel, paclitaxel] | – |
| essentially insoluble in water | essentially undetectable | CO[C@H]1C[C@@H]2CC[C@@H](C)[C@@](O)(O2)C(=O)C(=O)N2CCCC[C@H]2C(=O)O[C@H]([C@H](C)C[C@@H]2CC[C@@H](O)[C@H](OC)C2)CC(=O)[C@H](C)/C=C(\C)[C@@H](O)[C@@H](OC)C(=O)[C@H](C)C[C@H](C)/C=C/C=C/C=C/1C [free rapamycin, rapamycin] | – |
| essentially insoluble in water | – | CO[C@H]1/C=C/O[C@@]2(C)Oc3c(C)c(O)c4c(O)c(c(/C=N/N5CCN(C)CC5)c(O)c4c3C2=O)NC(=O)/C(C)=C\C=C\[C@H](C)[C@H](O)[C@@H](C)[C@@H](O)[C@@H](C)[C@H](OC(C)=O)[C@@H]1C [free rifampicin, rifampicin] | – |
